# Test results published in a melting point compilation (Tetko et al.).
row,Structure (SMILES),melting point
1,Cc1sc(C(=O)O)cc1CS(C)(=O)=O,233 to 235 °C
2,N#CC1(c2ccc(C(=O)O)cc2)CC1,219 to 221 °C
3,OCC#Cc1ccc(Cl)cc1,76 to 78 °C
4,CCOc1ccccc1C(N)(C(=O)O)C(F)(F)F (configuration not stated),119 to 121 °C
5,NNC(=O)Cc1ccncc1,91 to 93 °C
6,Cc1cccc(-c2nnc(CCl)o2)c1,57 to 59 °C
7,CCn1nc(N)cc1C(F)(F)F,54 to 56 °C
8,NCCCN1CCC(C(N)=O)CC1,94 to 96 °C
9,Cc1cccnc1NC(=O)C1CCNCC1,136 to 138 °C
10,O=C(O)c1ccc(C2CCCOC2)cc1 (configuration not stated),166 to 168 °C
11,Cc1cnc2c(Cl)nccc2n1,139 to 141 °C
12,COc1cccc2c1OCCC2=O,80 to 82 °C
13,Cc1c(C(=O)O)cnn1C1CCCC1,99 to 101 °C
14,NNC(=O)c1cc(-c2ccco2)nc2ccccc12,219 to 221 °C
15,Cc1ccc(C(=O)Nc2cccc(C(F)(F)F)c2)cc1O,169 to 171 °C
16,Cc1ccc(C(=O)NN)o1,59 to 61 °C
17,O=C(NCc1ccccc1)c1cc(Cl)ccn1,66 to 68 °C
18,Cc1nn(C)c(C)c1C(C)C(=O)O (configuration not stated),119 to 121 °C
19,Cn1nnnc1SCC(=O)O,108 to 110 °C
20,CS(=O)(=O)c1ccc(Br)c(S(=O)(=O)Cl)c1,160 to 162 °C
21,Nc1ccc(C(=O)NC2CCOCC2)cc1,217 to 219 °C
22,O=C(O)CCNC(=O)c1ccsc1,235 to 237 °C
23,CC(C)CC(=O)NNC(=O)C(C)Cl (configuration not stated),174 to 176 °C
24,CC(C)(C)NS(=O)(=O)c1ccc(Cl)c([N+](=O)[O-])c1,88 to 90 °C

row,Structure (SMILES),melting point
1,Nc1ccc2nc(Cc3ccccc3)oc2c1,104 to 106 °C
2,ClCc1nc(-c2ccc(Br)s2)no1,42 to 44 °C
3,N#Cc1nc(N)[nH]c1C#N,270 to 272 °C
4,Cn1ccc(N2CCCC(N)C2=O)n1 (configuration not stated),79 to 81 °C
5,CC(C)n1cccc1C(=O)O,106 to 108 °C
6,O=C(CCl)Nc1cc2c(cc1[N+](=O)[O-])OCO2,142 to 144 °C
7,CCOC(=O)CNc1ccc(F)cc1,73 to 77 °C
8,O=C(CN1CCNCC1)N1CCCc2ccccc21,64 to 66 °C
9,O=C(O)c1cc(F)cc([N+](=O)[O-])c1Br,177 to 179 °C
10,O=C(O)CCCCOc1ccc(Oc2ccccc2)cc1,53 to 55 °C
11,CCC(C)NS(=O)(=O)c1cccc(C(=O)O)c1 (configuration not stated),155 to 157 °C
12,Cc1ccc(OCc2nc(CC(=O)O)cs2)cc1,145 to 147 °C
13,Nc1onc(-c2ccc(Br)s2)c1-c1ccc(F)cc1,141 to 143 °C
14,Cn1ccc(C(=O)O)c1,144 to 146 °C
15,Cc1cc(C)cc(-n2nnnc2S)c1,164 to 166 °C
16,O=C(O)C=Cc1nc2ccccc2s1,222 to 224 °C
17,COc1cc(CC#N)ccc1OCC(F)(F)F,62 to 64 °C
18,COc1ccc(C(N)Cc2ccccc2C)cc1OC (configuration not stated),49 to 51 °C
19,COC(C)C(N)=S (configuration not stated),58 to 60 °C
20,COc1cc(C=O)cc(OC)c1OC(C)=O,115 to 117 °C
21,Cc1nc(N2CCCC2)[nH]c(=O)c1CC(=O)O,262 to 264 °C
22,COC(=O)c1cc([N+](=O)[O-])cc([N+](=O)[O-])c1OC,69 to 71 °C
23,Cc1nc(Cl)c2cnn(-c3ccc(F)cc3)c2n1,114 to 116 °C
24,O=C(CCl)N1CCOC2CCCCC21 (configuration not stated),67 to 69 °C

row,Structure (SMILES),melting point
1,CCc1[nH]ncc1C(=O)O,229 to 231 °C
2,Cc1nc(-c2cccs2)c(CC(=O)O)s1,159 to 161 °C
3,COc1ccc(CCC(=O)O)cc1O,149 to 151 °C
4,O=Cc1cn(-c2ccccc2)nc1-c1cccc(Br)c1,91 to 93 °C
5,Cc1ocnc1C(=O)O,127 to 129 °C
6,O=C1Nc2cc(Cl)ccc2C1=O,264 to 266 °C
7,COc1ccc(CCn2c(S)nc3ccccc3c2=O)cc1OC,223 to 225 °C
8,O=C(CCl)Nc1ccc2[nH]c(=O)[nH]c2c1,230 to 232 °C
9,COc1ccc(N)c(C(=O)NC2CC2)c1,137 to 139 °C
10,O=C(O)C1CCN(C(=O)CSc2nnc(-c3ccccc3)o2)CC1,104 to 106 °C
11,COc1ccc(Oc2c(F)cc(CCl)cc2F)cc1,62 to 64 °C
12,NC(=O)NCc1ccc(N)cc1,159 to 161 °C
13,CCN(CC)c1ccc(S(N)(=O)=O)cc1NC(=O)CCl,135 to 137 °C
14,Cc1nc(-c2ccncc2)nc(Cl)c1C,112 to 114 °C
15,BrC12CC3CC(C1)CC(Br)(C3)C2,108 to 110 °C
16,Cn1ccc(C(=O)N2CCC(CO)CC2)cc1=O,174 to 176 °C
17,Nc1cc(Br)cnc1-n1cccn1,72 to 74 °C
18,CC(C)(C)C(=O)NCc1ccc(C(=O)CCl)s1,102 to 104 °C
19,Cc1csc2ncc(C(=O)O)c(=O)n12,249 to 251 °C
20,O=C(CCl)Nc1ccc(N2CCCC2=O)cc1,258 to 260 °C
21,CC(C)(C)C(=O)N1CCOC(C(=O)O)C1 (configuration not stated),148 to 150 °C
22,FC(F)(F)Oc1cccc2c(Cl)ccnc12,51 to 53 °C
23,O=C(O)C1CCCN(C(=O)N2CCc3sccc3C2)C1 (configuration not stated),66 to 68 °C
24,Cc1nnc(CO)n1C1CC1,114 to 116 °C
